Results taken from ChEMBL document CHEMBL3351764, “Design, synthesis and biological activity of flavonoid derivatives as selective agonists for neuromedin U 2 receptor” (Bioorg Med Chem, 2014).
The source made the active and inactive calls.

Tests used:
[1] = target: Melanocortin receptor 5 (Mus musculus) (UniProt P41149); experiment: Agonist activity at mouse MC5 receptor at 100 uM to 5 mM
[2] = target: Melanocortin receptor 3 (Mus musculus) (UniProt P33033); experiment: Agonist activity at mouse MC3 receptor at 100 uM to 5 mM
Melanocortin receptor 3 (Mus musculus), sequence (P33033 whole entry): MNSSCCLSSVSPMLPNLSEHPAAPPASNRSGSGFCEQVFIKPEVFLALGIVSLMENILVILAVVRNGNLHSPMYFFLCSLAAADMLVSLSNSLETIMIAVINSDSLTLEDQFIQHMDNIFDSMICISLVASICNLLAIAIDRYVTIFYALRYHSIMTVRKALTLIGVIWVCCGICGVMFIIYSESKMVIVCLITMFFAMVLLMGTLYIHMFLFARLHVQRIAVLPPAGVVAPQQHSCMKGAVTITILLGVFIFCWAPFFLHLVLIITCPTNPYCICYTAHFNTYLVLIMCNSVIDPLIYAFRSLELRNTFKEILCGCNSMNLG

[3] = target: T1, Adenosine receptor A3 (Homo sapiens) (UniProt P0DMS8); experiment: Agonist activity at human A3 receptor at 100 uM to 5 mM
T1 sequence (whole entry): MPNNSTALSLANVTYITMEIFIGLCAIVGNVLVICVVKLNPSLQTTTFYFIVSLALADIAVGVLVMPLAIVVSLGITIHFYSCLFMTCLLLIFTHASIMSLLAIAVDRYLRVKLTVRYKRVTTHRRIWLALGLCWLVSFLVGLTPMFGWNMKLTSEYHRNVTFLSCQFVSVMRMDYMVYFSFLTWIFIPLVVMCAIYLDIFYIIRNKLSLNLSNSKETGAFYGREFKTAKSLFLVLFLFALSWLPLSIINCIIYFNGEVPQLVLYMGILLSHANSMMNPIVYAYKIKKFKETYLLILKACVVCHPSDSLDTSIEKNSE

[4] = target: Adenosine receptor A2a (Homo sapiens) (UniProt P29274); experiment: Agonist activity at human A2a receptor at 100 uM to 5 mM
Adenosine receptor A2a (Homo sapiens), sequence (P29274 whole entry): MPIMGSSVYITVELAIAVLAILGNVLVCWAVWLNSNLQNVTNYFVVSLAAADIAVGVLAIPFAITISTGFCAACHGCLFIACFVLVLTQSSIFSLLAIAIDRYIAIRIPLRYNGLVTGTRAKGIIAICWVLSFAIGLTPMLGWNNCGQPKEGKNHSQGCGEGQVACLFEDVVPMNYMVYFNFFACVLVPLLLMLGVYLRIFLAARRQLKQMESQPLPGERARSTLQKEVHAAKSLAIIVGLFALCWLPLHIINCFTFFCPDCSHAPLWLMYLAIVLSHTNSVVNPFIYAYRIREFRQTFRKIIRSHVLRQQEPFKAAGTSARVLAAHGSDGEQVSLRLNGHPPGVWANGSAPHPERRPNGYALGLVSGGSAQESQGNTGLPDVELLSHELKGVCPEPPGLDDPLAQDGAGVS

[5] = target: Adrenocorticotropic hormone receptor (Mus musculus) (UniProt Q64326); experiment: Agonist activity at mouse MC2 receptor at 100 uM to 5 mM
Adrenocorticotropic hormone receptor (Mus musculus), sequence (Q64326 whole entry): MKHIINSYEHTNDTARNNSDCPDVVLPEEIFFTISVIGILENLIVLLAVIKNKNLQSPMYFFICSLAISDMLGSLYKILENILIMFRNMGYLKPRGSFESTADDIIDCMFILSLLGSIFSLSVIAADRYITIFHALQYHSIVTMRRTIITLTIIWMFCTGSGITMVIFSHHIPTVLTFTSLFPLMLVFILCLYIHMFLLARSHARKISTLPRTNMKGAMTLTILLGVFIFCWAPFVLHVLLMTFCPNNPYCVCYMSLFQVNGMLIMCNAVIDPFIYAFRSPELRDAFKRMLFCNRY

[6] = target: Adrenocorticotropic hormone receptor (Homo sapiens) (UniProt Q01718); experiment: Agonist activity at human MC2 receptor at 100 uM to 5 mM
Adrenocorticotropic hormone receptor (Homo sapiens), sequence (Q01718 whole entry): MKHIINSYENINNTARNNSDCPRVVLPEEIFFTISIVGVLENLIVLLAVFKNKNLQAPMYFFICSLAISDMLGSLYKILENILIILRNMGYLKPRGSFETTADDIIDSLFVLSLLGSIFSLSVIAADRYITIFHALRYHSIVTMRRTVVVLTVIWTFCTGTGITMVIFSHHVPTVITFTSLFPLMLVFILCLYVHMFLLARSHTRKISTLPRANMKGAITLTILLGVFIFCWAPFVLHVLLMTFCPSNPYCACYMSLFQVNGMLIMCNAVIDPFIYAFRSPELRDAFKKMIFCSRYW

[7] = target: T2, C5a anaphylatoxin chemotactic receptor 1 (Homo sapiens) (UniProt P21730); experiment: Agonist activity at human C5a receptor at 100 uM to 5 mM
T2 sequence (whole entry): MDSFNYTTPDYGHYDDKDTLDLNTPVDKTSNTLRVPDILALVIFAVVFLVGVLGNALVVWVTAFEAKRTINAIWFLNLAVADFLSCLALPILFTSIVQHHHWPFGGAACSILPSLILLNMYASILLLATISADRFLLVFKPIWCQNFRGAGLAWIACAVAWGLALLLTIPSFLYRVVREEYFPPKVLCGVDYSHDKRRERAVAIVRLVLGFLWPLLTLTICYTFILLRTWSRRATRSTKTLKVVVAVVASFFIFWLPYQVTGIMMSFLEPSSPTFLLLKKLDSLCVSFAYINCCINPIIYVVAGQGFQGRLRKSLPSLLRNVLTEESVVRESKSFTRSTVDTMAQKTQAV

[8] = target: T3, Parathyroid hormone/parathyroid hormone-related peptide receptor (Homo sapiens) (UniProt Q03431); experiment: Agonist activity at human PTH receptor at 100 uM to 5 mM
T3 sequence (whole entry): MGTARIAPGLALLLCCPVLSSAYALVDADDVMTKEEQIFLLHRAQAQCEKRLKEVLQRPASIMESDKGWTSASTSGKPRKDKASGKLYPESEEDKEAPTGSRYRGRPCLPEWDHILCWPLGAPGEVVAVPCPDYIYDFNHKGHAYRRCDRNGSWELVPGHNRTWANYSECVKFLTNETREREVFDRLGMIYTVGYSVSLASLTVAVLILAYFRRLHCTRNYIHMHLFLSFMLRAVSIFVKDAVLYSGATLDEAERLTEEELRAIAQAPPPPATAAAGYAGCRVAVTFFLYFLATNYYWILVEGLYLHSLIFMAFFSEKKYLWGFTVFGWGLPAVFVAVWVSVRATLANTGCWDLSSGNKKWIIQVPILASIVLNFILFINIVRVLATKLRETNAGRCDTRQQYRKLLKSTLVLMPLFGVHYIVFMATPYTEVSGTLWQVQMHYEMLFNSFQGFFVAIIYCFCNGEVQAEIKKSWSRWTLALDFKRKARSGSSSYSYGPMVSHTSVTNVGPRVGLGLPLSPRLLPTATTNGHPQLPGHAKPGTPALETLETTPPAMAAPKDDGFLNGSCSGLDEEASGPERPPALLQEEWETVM

[9] = target: T4, Neuropeptide Y receptor type 5 (Homo sapiens) (UniProt Q15761); experiment: Agonist activity at human NPY5 receptor at 100 uM to 5 mM
T4 sequence (whole entry): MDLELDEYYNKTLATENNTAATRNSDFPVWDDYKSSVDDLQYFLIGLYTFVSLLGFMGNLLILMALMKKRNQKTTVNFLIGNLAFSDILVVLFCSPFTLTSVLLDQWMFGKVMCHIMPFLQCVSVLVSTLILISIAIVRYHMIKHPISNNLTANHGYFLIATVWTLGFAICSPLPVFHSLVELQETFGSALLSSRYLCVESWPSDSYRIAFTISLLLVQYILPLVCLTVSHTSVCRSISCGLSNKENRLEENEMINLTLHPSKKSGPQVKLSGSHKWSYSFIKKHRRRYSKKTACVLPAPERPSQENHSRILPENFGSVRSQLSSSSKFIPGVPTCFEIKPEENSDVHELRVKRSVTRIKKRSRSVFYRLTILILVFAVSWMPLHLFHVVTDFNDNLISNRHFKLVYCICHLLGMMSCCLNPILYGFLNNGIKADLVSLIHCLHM

[10] = target: Melanocortin receptor 4 (Mus musculus) (UniProt P56450); experiment: Agonist activity at mouse MC4 receptor at 100 uM to 5 mM
Melanocortin receptor 4 (Mus musculus), sequence (P56450 whole entry): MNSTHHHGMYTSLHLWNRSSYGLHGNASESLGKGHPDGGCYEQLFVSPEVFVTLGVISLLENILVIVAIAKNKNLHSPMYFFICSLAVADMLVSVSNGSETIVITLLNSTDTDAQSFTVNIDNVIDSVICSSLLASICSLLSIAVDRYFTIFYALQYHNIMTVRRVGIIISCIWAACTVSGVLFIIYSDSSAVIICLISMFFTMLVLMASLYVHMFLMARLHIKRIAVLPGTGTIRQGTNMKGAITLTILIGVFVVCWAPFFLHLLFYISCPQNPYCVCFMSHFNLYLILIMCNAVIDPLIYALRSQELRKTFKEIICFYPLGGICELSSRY

[11] = target: T5, Orexin receptor type 2 (Homo sapiens) (UniProt O43614); experiment: Agonist activity at human orexin 2 receptor at 100 uM to 5 mM
T5 sequence (whole entry): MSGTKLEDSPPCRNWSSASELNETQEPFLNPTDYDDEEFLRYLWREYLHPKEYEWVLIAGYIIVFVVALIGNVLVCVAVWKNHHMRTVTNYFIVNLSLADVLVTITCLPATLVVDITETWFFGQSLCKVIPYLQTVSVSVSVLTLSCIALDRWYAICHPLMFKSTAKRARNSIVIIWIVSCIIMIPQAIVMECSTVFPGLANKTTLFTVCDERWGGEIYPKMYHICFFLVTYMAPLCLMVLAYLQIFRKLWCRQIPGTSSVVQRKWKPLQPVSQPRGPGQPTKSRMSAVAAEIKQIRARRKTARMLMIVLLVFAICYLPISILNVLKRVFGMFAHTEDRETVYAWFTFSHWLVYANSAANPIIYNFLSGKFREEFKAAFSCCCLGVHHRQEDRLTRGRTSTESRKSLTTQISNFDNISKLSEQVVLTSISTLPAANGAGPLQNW

[12] = target: D(1A) dopamine receptor (Homo sapiens) (UniProt P21728); experiment: Agonist activity at human D1 receptor at 100 uM to 5 mM
D(1A) dopamine receptor (Homo sapiens), sequence (P21728 whole entry): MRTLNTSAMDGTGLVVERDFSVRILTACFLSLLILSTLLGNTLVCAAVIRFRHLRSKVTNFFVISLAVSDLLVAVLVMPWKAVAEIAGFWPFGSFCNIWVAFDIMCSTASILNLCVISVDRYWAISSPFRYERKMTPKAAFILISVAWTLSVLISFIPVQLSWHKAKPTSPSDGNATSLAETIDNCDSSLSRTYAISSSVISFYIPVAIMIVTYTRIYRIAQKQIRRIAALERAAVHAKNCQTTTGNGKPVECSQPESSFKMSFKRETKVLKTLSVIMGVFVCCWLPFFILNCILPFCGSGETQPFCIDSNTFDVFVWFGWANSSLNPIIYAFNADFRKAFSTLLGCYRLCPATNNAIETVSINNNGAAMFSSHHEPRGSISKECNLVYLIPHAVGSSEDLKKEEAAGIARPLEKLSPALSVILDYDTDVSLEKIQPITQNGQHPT

Measured: Activity

Melanocortin receptor 5 (Mus musculus), sequence (P41149 whole entry): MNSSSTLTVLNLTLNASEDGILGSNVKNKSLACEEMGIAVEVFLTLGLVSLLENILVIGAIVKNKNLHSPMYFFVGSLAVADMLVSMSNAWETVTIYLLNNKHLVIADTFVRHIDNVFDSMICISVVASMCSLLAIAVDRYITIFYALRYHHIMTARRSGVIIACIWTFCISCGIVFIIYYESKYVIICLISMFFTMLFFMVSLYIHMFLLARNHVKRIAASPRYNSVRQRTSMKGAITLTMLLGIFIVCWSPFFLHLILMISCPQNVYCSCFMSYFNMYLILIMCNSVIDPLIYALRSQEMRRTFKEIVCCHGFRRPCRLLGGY

CN(C)c1ccc(C2C=Cc3ccccc3O2)cc1 (racemic)
inactive: all assays above

COc1ccc(F)c(-c2oc3ccccc3c(=O)c2O)c1
inactive: all assays above

CCN(CC)c1ccc(-c2oc3ccccc3c(=O)c2O)cc1
inactive: all assays above

O=c1c(O)c(-c2ccc(O)c(O)c2)oc2ccccc12
inactive: all assays above

O=c1c(O)c(-c2ccc(O)cc2)oc2ccccc12
inactive: all assays above

O=c1cc(-c2ccc(O)cc2)oc2ccccc12
inactive: all assays above

O=c1c(O)c(-c2ccc(Cl)cc2Cl)oc2ccccc12
inactive: all assays above

COc1cccc(-c2oc3ccccc3c(=O)c2O)c1
inactive: all assays above

O=c1cc(-c2ccccc2F)oc2ccccc12
inactive: all assays above
